{"source": "patent US9174964B2", "about": "“AMPK-activating piperidinyloxy-substituted 2,3-dihydro-1H-indene-1-amine compounds and pharmaceutical compositions including the same” (Rigel Pharmaceuticals, Inc., priority 2007, dated 2015)", "note": "pEC50: −log10 of the molar value. Where a name gives a salt, the structure may show the parent alone."}
{"target": "AMPK", "test": "AMPK activation, enzyme-linked immunosorbent assay", "assay_type": "biochemical", "conditions": "Table 2, AMPK activation, ELISA", "experimental": "(§1) Compounds 1-50 of Table 1 were assayed for their ability to activate AMPK using an enzyme-linked immunosorbent assay.\n(§2) Compounds 51-60 of Table 1 were assayed for their ability to activate AMPK using an enzyme-linked immunosorbent assay.\n(§3) Compounds 61-131 of Table 1 were assayed for their ability to activate AMPK using an enzyme-linked immunosorbent assay.\n(§4) Compounds 137-141 and 143-155 of Table 1 were assayed for their ability to activate AMPK using an enzyme-linked immunosorbent assay.\n(§5) Compounds 156-160 of Table 1 were assayed for their ability to activate AMPK using an enzyme-linked immunosorbent assay."}
{"smiles": "O=C(NC1CCN(Cc2cccnc2)CC1)c1ccc(OC2CCN(c3ccc(C(F)(F)F)cc3)CC2)cn1", "note": "[Compound 5, N-(1-(pyridin-3-ylmethyl)piperidin-4-yl)-5-(1-(4-(trifluoromethyl)phenyl)piperidin-4-yloxy)picolinamide]", "pEC50": "> 7.00"}
{"smiles": "O=C(NC1CCN(Cc2ccc(F)cc2)CC1)c1cc(OC2CCN(c3ccc(C(F)(F)F)cc3)CC2)ccn1", "note": "[Compound 29, N-(1-(4-fluorobenzyl)piperidin-4-yl)-4-(1-(4-(trifluoromethyl)phenyl)piperidin-4-yloxy)picolinamide]", "pEC50": "6.30 to 7.00"}
{"smiles": "CC(C)(C)OC(=O)N1CCC(NC(=O)c2ccnc(OC3CCN(c4ccc(C(F)(F)F)cc4)CC3)c2)CC1", "note": "[Compound 15, tert-butyl 4-(2-(1-(4-(trifluoromethyl)phenyl)piperidin-4-yloxy)isonicotinamido) piperidine-1-carboxylate]", "pEC50": "5.30 to 6.00"}
{"smiles": "O=C(N[C@@H]1CCN(Cc2ccncc2)C1)c1ccc(OC2CCN(c3ccc(C(F)(F)F)cc3)CC2)cn1", "note": "[Compound 25, (R)-N-(1-(pyridin-4-ylmethyl)pyrrolidin-3-yl)-5-(1-(4-(trifluoromethyl)phenyl)piperidin-4-yloxy)picolinamide]", "pEC50": "6.30 to 7.00"}
{"smiles": "O=C(NC1CCN(CCc2ccccc2)CC1)c1ccc(OC2CCN(c3ccc(C(F)(F)F)cc3)CC2)cn1", "note": "[Compound 36, N-(1-phenethylpiperidin-4-yl)-5-(1-(4-(trifluoromethyl)phenyl)piperidin-4-yloxy)picolinamide]", "pEC50": "6.00 to 6.30"}
{"smiles": "CC(C)(C)OC(=O)N1CCC(NC(=O)c2ccc(OC3CCN(c4ccc(C(F)(F)F)cc4)CC3)nc2)CC1", "note": "[Compound 9, tert-butyl 4-(6-(1-(4-(trifluoromethyl)phenyl)piperidin-4-yloxy)nicotinamido) piperidine-1-carboxylate]", "pEC50": "6.30 to 7.00"}
{"smiles": "O=C(NC1CCN(Cc2ccc3ccccc3c2)CC1)c1ccc(OC2CCN(c3ccc(C(F)(F)F)cc3)CC2)cn1", "note": "[Compound 37, N-(1-(naphthalen-2-ylmethyl)piperidin-4-yl)-5-(1-(4-(trifluoromethyl)phenyl)piperidin-4-yloxy)picolinamide]", "pEC50": "6.00 to 6.30"}
{"smiles": "N#Cc1ccc(CN2CC[C@H](NC(=O)c3ccc(OC4CCN(c5ccc(C(F)(F)F)cc5)CC4)cn3)C2)cc1", "note": "[Compound 31, (S)-N-(1-(4-cyanobenzyl)pyrrolidin-3-yl)-5-(1-(4-(trifluoromethyl)phenyl)piperidin-4-yloxy)picolinamide]", "pEC50": "> 7.00"}
{"smiles": "N#Cc1ccc(CN2CCC(NC(=O)c3ccc(OC4CCN(c5ccc(C#N)cc5)CC4)cn3)CC2)cc1", "note": "[Compound 2, N-(1-(4-cyanobenzyl)piperidin-4-yl)-5-(1-(4-cyanophenyl)piperidin-4-yloxy)picolinamide]", "pEC50": "> 7.00"}
{"smiles": "O=C(NC1CCN(Cc2ccncc2)CC1)c1cc(OC2CCN(c3ccc(C(F)(F)F)cc3)CC2)ccn1", "note": "[Compound 13, N-(1-(pyridin-4-ylmethyl)piperidin-4-yl)-4-(1-(4-(trifluoromethyl)phenyl)piperidin-4-yloxy)picolinamide]", "pEC50": "6.30 to 7.00"}
{"smiles": "N#Cc1ccc(CN2CC[C@@H](NC(=O)c3ccc(OC4CCN(c5ccc(C(F)(F)F)cc5)CC4)cn3)C2)cc1", "note": "[Compound 33, (R)-N-(1-(4-cyanobenzyl)pyrrolidin-3-yl)-5-(1-(4-(trifluoromethyl)phenyl)piperidin-4-yloxy)picolinamide]", "pEC50": "6.00 to 6.30"}
{"smiles": "O=C(NC1CCN(Cc2ccc(N3CCOCC3)cc2)CC1)c1ccc(OC2CCN(c3ccc(C(F)(F)F)cc3)CC2)cn1", "note": "[Compound 40, N-(1-(4-morpholinobenzyl)piperidin-4-yl)-5-(1-(4-(trifluoromethyl)phenyl)piperidin-4-yloxy)picolinamide]", "pEC50": "> 7.00"}
{"target": "AMPK", "test": "AMPK activation, enzyme-linked immunosorbent assay", "assay_type": "biochemical", "conditions": "Table 3, AMPK activation, ELISA", "experimental": "as §1, §2, §3, §4, §5"}
{"smiles": "O=S(=O)(NC1CCN(Cc2ccncc2)CC1)c1ccc(OC2CCN(c3ccc(C(F)(F)F)cc3)CC2)nc1", "note": "[Compound 51, N-(1-(pyridin-4-ylmethyl)piperidin-4-yl)-6-(1-(4-(trifluoromethyl)phenyl)piperidin-4-yloxy)pyridine-3-sulfonamide]", "pEC50": "6.30 to 7.00"}
{"smiles": "O=S(=O)(NC1CCN(Cc2cccc(C(F)(F)F)c2)CC1)c1ccc(OC2CCN(c3ccc(C(F)(F)F)cc3)CC2)nc1", "note": "[Compound 59, N-(1-(3-(trifluoromethyl)benzyl)piperidin-4-yl)-6-(1-(4-(trifluoromethyl)phenyl)piperidin-4-yloxy)pyridine-3-sulfonamide]", "pEC50": "6.30 to 7.00"}
{"target": "AMPK", "test": "AMPK activation, enzyme-linked immunosorbent assay", "assay_type": "biochemical", "conditions": "Table 4, AMPK activation, ELISA", "experimental": "as §1, §2, §3, §4, §5"}
{"smiles": "CN(C(=O)c1cc2cc(OC3CCN(c4ccc(C(F)(F)F)cc4)CC3)ccc2o1)C1CCN(Cc2ccc(C(F)(F)F)cc2)CC1", "note": "[Compound 119, N-methyl-N-(1-(4-(trifluoromethyl)benzyl)piperidin-4-yl)-5-(1-(4-(trifluoromethyl)phenyl)piperidin-4-yloxy)benzofuran-2-carboxamide]", "pEC50": "> 7.00"}
{"smiles": "O=C(NC1CCN(C(=O)c2ccncc2)CC1)c1cc2ccc(OC3CCN(c4ccc(C(F)(F)F)cc4)CC3)cc2o1", "note": "[Compound 112, N-(1-isonicotinoylpiperidin-4-yl)-6-(1-(4-(trifluoromethyl)phenyl)piperidin-4-yloxy)benzofuran-2-carboxamide]", "pEC50": "> 7.00"}
{"smiles": "Cc1c(C(=O)NC2CCN(Cc3ccc(F)cc3)CC2)oc2cc(OC3CCN(c4ccc(C(F)(F)F)cc4)CC3)ccc12", "note": "[Compound 63, N-(1-(4-fluorobenzyl)piperidin-4-yl)-3-methyl-6-(1-(4-(trifluoromethyl)phenyl)piperidin-4-yloxy)benzofuran-2-carboxamide]", "pEC50": "> 7.00"}
{"smiles": "Cc1c(C(=O)NC2CCN(Cc3cccnc3)CC2)oc2cc(OC3CCN(c4ccc(C(F)(F)F)cc4)CC3)ccc12", "note": "[Compound 69, 3-methyl-N-(1-(pyridin-3-ylmethyl)piperidin-4-yl)-6-(1-(4-(trifluoromethyl)phenyl)piperidin-4-yloxy)benzofuran-2-carboxamide]", "pEC50": "> 7.00"}
{"smiles": "O=C(NC1CCN(Cc2ccncc2)CC1)c1cc2cc(OC3CCN(c4ccc(C(F)(F)F)cc4)CC3)ccc2o1", "note": "[Compound 76, N-(1-(pyridin-4-ylmethyl)piperidin-4-yl)-5-(1-(4-(trifluoromethyl)phenyl)piperidin-4-yloxy)benzofuran-2-carboxamide]", "pEC50": "6.30 to 7.00"}
{"smiles": "O=C(NC1CCN(Cc2ccccc2)CC1)c1cc2cc(OC3CCN(c4ccc(C(F)(F)F)cc4)CC3)ccc2o1", "note": "[Compound 75, N-(1-benzylpiperidin-4-yl)-5-(1-(4-(trifluoromethyl)phenyl)piperidin-4-yloxy)benzofuran-2-carboxamide]", "pEC50": "> 7.00"}
{"smiles": "O=C(N[C@@H]1CCN(Cc2ccccn2)C1)c1cc2cc(OC3CCN(c4ccc(C(F)(F)F)cc4)CC3)ccc2o1", "note": "[Compound 124, (R)-N-(1-(pyridin-2-ylmethyl)pyrrolidin-3-yl)-5-(1-(4-(trifluoromethyl)phenyl)piperidin-4-yloxy)benzofuran-2-carboxamide]", "pEC50": "5.00 to 6.00"}
{"smiles": "N#Cc1ccc(CN2CCC(Oc3ccc4oc(C(=O)NC5CCN(Cc6ccncc6)CC5)cc4c3)CC2)cc1", "note": "[Compound 79, 5-(1-(4-cyanobenzyl)piperidin-4-yloxy)-N-(1-(pyridin-4-ylmethyl)piperidin-4-yl)benzofuran-2-carboxamide]", "pEC50": "6.30 to 7.00"}
{"smiles": "O=C(NC1CCN(Cc2ccccc2)CC1)c1cc2cc(OC3CCN(Cc4ccc(Cl)cc4)CC3)ccc2o1", "note": "[Compound 72, N-(1-benzylpiperidin-4-yl)-5-(1-(4-chlorobenzyl)piperidin-4-yloxy)benzofuran-2-carboxamide]", "pEC50": "6.30 to 7.00"}
{"smiles": "O=C(NC1CCN(Cc2ccccc2)CC1)c1cc2cc(OC3CCN(Cc4cccc(C(F)(F)F)c4)CC3)ccc2o1", "note": "[Compound 73, N-(1-benzylpiperidin-4-yl)-5-(1-(3-(trifluoromethyl)benzyl)piperidin-4-yloxy)benzofuran-2-carboxamide]", "pEC50": "6.00 to 6.30"}
{"smiles": "Cc1c(C(=O)NC2CCN(Cc3ccccn3)CC2)oc2cc(OC3CCN(c4ccc(C(F)(F)F)cc4)CC3)ccc12", "note": "[Compound 68, 3-methyl-N-(1-(pyridin-2-ylmethyl)piperidin-4-yl)-6-(1-(4-(trifluoromethyl)phenyl)piperidin-4-yloxy)benzofuran-2-carboxamide]", "pEC50": "> 7.00"}
{"smiles": "N#Cc1ccc(CN2CCC(NC(=O)c3cc4ccc(OC5CCN(c6ccc(OC(F)(F)F)cc6)CC5)cc4o3)CC2)cc1", "note": "[Compound 89, N-(1-(4-cyanobenzyl)piperidin-4-yl)-6-(1-(4-(trifluoromethoxy)phenyl)piperidin-4-yloxy)benzofuran-2-carboxamide]", "pEC50": "> 7.00"}
{"smiles": "O=C(NC1CCN(Cc2ccccn2)CC1)c1cc2ccc(OC3CCN(c4ccc(C(F)(F)F)cc4)CC3)cc2o1", "note": "[Compound 93, N-(1-(pyridin-2-ylmethyl)piperidin-4-yl)-6-(1-(4-(trifluoromethyl)phenyl)piperidin-4-yloxy)benzofuran-2-carboxamide]", "pEC50": "6.30 to 7.00"}
{"smiles": "O=C(NC1CCNCC1)c1cc2cc(OC3CCN(c4ccc(C(F)(F)F)cc4)CC3)ccc2o1", "note": "[Compound 86, N-(piperidin-4-yl)-5-(1-(4-(trifluoromethyl)phenyl)piperidin-4-yloxy)benzofuran-2-carboxamide hydrochloride]", "pEC50": "< 4.30"}
{"target": "AMPK", "test": "AMPK activation, enzyme-linked immunosorbent assay", "assay_type": "biochemical", "conditions": "Table 5, AMPK activation, ELISA", "experimental": "as §1, §2, §3, §4, §5"}
{"smiles": "O=C(NC1CCN(C(=O)c2ccncc2)CC1)c1sc2cc(OC3CCN(c4ccc(C(F)(F)F)cc4)CC3)ccc2c1Cl", "note": "[Compound 155, 3-chloro-N-(1-isonicotinoylpiperidin-4-yl)-6-(1-(4-(trifluoromethyl)phenyl)piperidin-4-yloxy)benzo[b]thiophene-2-carboxamide]", "pEC50": "> 7.00"}
{"smiles": "O=C(NC1CCN(Cc2ccncc2)CC1)c1cc2cc(OC3CCN(Cc4ccc(Cl)cc4)CC3)ccc2s1", "note": "[Compound 139, formate salt]", "pEC50": "> 7.00"}
{"smiles": "CC(C)(C)OC(=O)N1CCC(NC(=O)c2cc3ccc(OC4CCN(c5ccc(C(F)(F)F)cc5)CC4)cc3s2)CC1", "note": "[Compound 140, tert-butyl 4-(6-(1-(4-(trifluoromethyl)phenyl)piperidin-4-yloxy)benzo[b]thiophene-2-carboxamido)piperidine-1-carboxylate]", "pEC50": "6.00 to 6.30"}
